# Source: patent US7897640B2 (priority 2003, dated 2011)
# Marks after values point to notes of the source that are not given here.
# Legend:
# [1] = tested on: human T lymphocytes H9 chronically infected with HIV-1 IIIB; assay: cytotoxicity by MTT in H9 cells chronically infected with HIV-1 IIIB; conditions: H9 cell chronically infected with HIV-1 IIIB, 96 hours
# [2] = tested on: AZT-sensitive strain HIV-1 018a; assay: HIV-1 P24 antigen inhibition in PBMC, AZT-sensitive strain; conditions: PBMC, AZT-sensitive HIV-1 018a
# human T lymphocytes MT-4 = assay: cytotoxicity by MTT in MT-4 culture; conditions: MT-4 culture with HIV-1 IIIB, 96 hours
# HIV-1 IIIB [3] = assay: HIV-1 P24 antigen inhibition in MT-4 culture; conditions: MT-4, HIV-1 IIIB
# Description: MT-4 cell suspension was counted, then 100 μl of suspension (2×10^5 cells/ml) was seeded into 96-well cell culture plate, 50 μl liquor of 2× diluted medicament or 4-5× diluted positive medicament AZT (8 concentrations) was added, respectively, and 50 μl virus suspension with proper titer was add concurrently. Each dilution was repeated in 3 wells and cell control group and virus control group were established. They were incubated at 37° C., 5% CO2 saturated humidity incubator and the cytopathy was observed everyday. On the fourth day after administration (96 hours), the supernatants were sucked out and stored at −20° C. for measuring HIV-1-P24 antigen titer. Accordingly, the inhibition effect of medicament could be calculated, and the cells were dyed with MTT to measure the cytotoxicity.
# The medicated cell supernatants infected with MT-4 were diluted after being thawed. HIV-1 P24 titer was measured according to the operation procedure described in HIV-1 P24 antigen kit.
# [formula] 2.2.2 Reed & Muench Method for Calculating CC50 and EC50 of Medicament in Cell Culture
# [formula] 2.2.3. Calculation Method of Selection Index (SI) of HIV-1 P24 Antigen in Cell Culture SI=CC50/EC50 3.
# [4] = tested on: duck hepatitis B virus (DHBV); assay: pharmacotherapy test in DHBV infected ducklings, serum DHBV-DNA dot-blot; assay type: in vivo, Beijing ducklings
# [5] = tested on: AZT-resistant strain HIV-1 018c; conditions: PBMC, AZT-resistant HIV-1 018c
# HIV-1 IIIB [6] = assay: HIV-1 P24 antigen inhibition in chronically infected H9 cells
# Description: HIV-1 P24 antigen titer was measured according to the operation procedures stated in HIV-1 P24 antigen kit.
# 100 μl (2×10^5 cells/ml) of H9 cells suspension was seeded into 96-well cell culture plate. Then, 100 μl liquor of 2× diluted medicament or 4-5× diluted positive AZT (8 concentrations) was added. Each dilution was repeated in three wells. The cell control group was established. The cells were incubated in the incubator (37° C., 5% CO2, saturated humidity) and the cytopathy was observed everyday. Four days (96 hours) after administration, the supernatants were sucked out and stored at −20° C. to measure HIV-1-P24 antigen titer. The inhibition effect of the medicament was determined. The cells were dyed with MTT to measure the cytotoxicity.
# 2.2.2 Reed & Muench Method for Calculating CC50 and EC50 of Medicament in Cell Culture
# Calculation Method of Selection Index (SI) of HIV-1 P24 Antigen in Cell Culture SI=CC50/EC50 3.
# [7] = tested on: human peripheral blood mononuclear cell (PBMC); assay: cytotoxicity by MTT in HIV-infected PBMC culture; conditions: 96 hours
# Description: 10 μl MTT dye (5 mg/ml) was added to each well, and then incubated at 37° C., 5% CO2 saturated humidity incubator for 4 hours. 100 μl 50% DMF-17% Triton X-100 destainer was added to each well and the mixtures were kept at 37° C. overnight. Then OD570nm values were measured at 570 nm with a luminometer to calculate the median cytotoxicity concentration of medicament (CC50).
# The fresh normal human venous blood was taken and PBMC was separated using FiColl separation solution. The 1.5×10^5 cells/ml suspension prepared with the culture fluid containing PHA was seeded into the culture bottle and incubated in the incubator (37° C., 5% CO2) for 72 hours. The cells were collected with cell scrapers then were infected with the 10^−2 viral liquid of AZT-sensitive (018a) or AZT-resistant (018c) viral strain. After absorption for 2 hours, the non-absorbed viruses were washed with serum-free 1640 culture medium. The infected cells were prepared into 1×10^6 cells/ml with the culture fluid, and then were seeded into the 96-well culture board in 100 μl/well. At the same time, 100 μl liquor of 2× diluted AKJ-2 or 5× diluted positive control medicament AZT with different concentrations was added. The cell control group and virus control group were established. Four days (96 hours) after incubating under 37° C., 5% CO2, the supernatants were sucked out and stored at −20° C. to measure HIV-1-P24 antigen titer and calculate the inhibition effect of the medicament. The cells were dyed with MTT to measure the cytotoxicity.
# solubility = assay type: physicochemical
structure (smiles),measurement,setting,value
"CC(C)=CC[C@H](OC(=O)C=C(C)C)C1=CC(=O)c2c(O)ccc(O)c2C1=O [AKJ, β,β-dimethyl-acryl-alkannin]",Median cytotoxicity concentration (CC50),[1],1.915 ± 0.09 µg/mL
same,Selection index (CC50/EC50),[2],5.12 ± 0.33
same,"Median effective concentration (EC50), HIV-1 P24 antigen",[2]; 96 hours,1.11 ± 0.11 µg/mL
same,Median cytotoxicity concentration (CC50),human T lymphocytes MT-4,0.31 ± 0.04 µg/mL
same,Selection index (CC50/EC50),HIV-1 IIIB [3],4.49 ± 0.94
same,"Median effective concentration (EC50), HIV-1 P24 antigen",HIV-1 IIIB [3]; 96 hours,0.07 ± 0.01 µg/mL
same,Serum DHBV-DNA OD490 value (X ± SD),"[4]; Lot I, 25 mg/kg oral bid x 10 days, P3 (third day after cessation)",0.792 ± 0.13
same,Serum DHBV-DNA level Inhibitory Rate (%),"[4]; Lot I, 25 mg/kg oral bid x 10 days, P3 vs T0",5.43%
same,Serum DHBV-DNA OD490 value (X ± SD),"[4]; Lot I, 25 mg/kg oral bid x 10 days, T0 (day before administration)",0.851 ± 0.15
same,Serum DHBV-DNA OD490 value (X ± SD),"[4]; Lot I, 25 mg/kg oral bid x 10 days, T5",0.767 ± 0.18
same,Serum DHBV-DNA level Inhibitory Rate (%),"[4]; Lot I, 25 mg/kg oral bid x 10 days, T5 vs T0",8.81%
same,Serum DHBV-DNA OD490 value (X ± SD),"[4]; Lot I, 25 mg/kg oral bid x 10 days, T10",0.762 ± 0.15
same,Serum DHBV-DNA level Inhibitory Rate (%),"[4]; Lot I, 25 mg/kg oral bid x 10 days, T10 vs T0",8.73%
same,Serum DHBV-DNA OD490 value (X ± SD),"[4]; Lot I, 50 mg/kg oral bid x 10 days, P3 (third day after cessation)",0.696 ± 0.05
same,Serum DHBV-DNA level Inhibitory Rate (%),"[4]; Lot I, 50 mg/kg oral bid x 10 days, P3 vs T0",32.39** %
same,Serum DHBV-DNA OD490 value (X ± SD),"[4]; Lot I, 50 mg/kg oral bid x 10 days, T0 (day before administration)",1.082 ± 0.23
same,Serum DHBV-DNA OD490 value (X ± SD),"[4]; Lot I, 50 mg/kg oral bid x 10 days, T5",0.961 ± 0.23
same,Serum DHBV-DNA level Inhibitory Rate (%),"[4]; Lot I, 50 mg/kg oral bid x 10 days, T5 vs T0",9.16%
same,Serum DHBV-DNA OD490 value (X ± SD),"[4]; Lot I, 50 mg/kg oral bid x 10 days, T10",0.680 ± 0.09
same,Serum DHBV-DNA level Inhibitory Rate (%),"[4]; Lot I, 50 mg/kg oral bid x 10 days, T10 vs T0",33.56** %
same,Serum DHBV-DNA OD490 value (X ± SD),"[4]; Lot I, 100 mg/kg oral bid x 10 days, P3 (third day after cessation)",0.667 ± 0.22
same,Serum DHBV-DNA level Inhibitory Rate (%),"[4]; Lot I, 100 mg/kg oral bid x 10 days, P3 vs T0",44.91** %
same,Serum DHBV-DNA OD490 value (X ± SD),"[4]; Lot I, 100 mg/kg oral bid x 10 days, T0 (day before administration)",1.207 ± 0.23
same,Serum DHBV-DNA OD490 value (X ± SD),"[4]; Lot I, 100 mg/kg oral bid x 10 days, T5",0.987 ± 0.26
same,Serum DHBV-DNA level Inhibitory Rate (%),"[4]; Lot I, 100 mg/kg oral bid x 10 days, T5 vs T0",17.86* %
same,Serum DHBV-DNA OD490 value (X ± SD),"[4]; Lot I, 100 mg/kg oral bid x 10 days, T10",0.757 ± 0.19
same,Serum DHBV-DNA level Inhibitory Rate (%),"[4]; Lot I, 100 mg/kg oral bid x 10 days, T10 vs T0",37.09** %
same,Serum DHBV-DNA OD490 value (X ± SD),"[4]; Lot II, 25 mg/kg oral bid x 10 days, P3 (third day after cessation)",1.092 ± 0.13
same,Serum DHBV-DNA level Inhibitory Rate (%),"[4]; Lot II, 25 mg/kg oral bid x 10 days, P3 vs T0",−12.91%
same,Serum DHBV-DNA OD490 value (X ± SD),"[4]; Lot II, 25 mg/kg oral bid x 10 days, T0 (day before administration)",1.005 ± 0.22
same,Serum DHBV-DNA OD490 value (X ± SD),"[4]; Lot II, 25 mg/kg oral bid x 10 days, T5",1.061 ± 0.08
same,Serum DHBV-DNA level Inhibitory Rate (%),"[4]; Lot II, 25 mg/kg oral bid x 10 days, T5 vs T0",−8.66%
same,Serum DHBV-DNA OD490 value (X ± SD),"[4]; Lot II, 25 mg/kg oral bid x 10 days, T10",0.928 ± 0.09
same,Serum DHBV-DNA level Inhibitory Rate (%),"[4]; Lot II, 25 mg/kg oral bid x 10 days, T10 vs T0",5.67%
same,Serum DHBV-DNA OD490 value (X ± SD),"[4]; Lot II, 50 mg/kg oral bid x 10 days, P3 (third day after cessation)",1.140 ± 0.25
same,Serum DHBV-DNA level Inhibitory Rate (%),"[4]; Lot II, 50 mg/kg oral bid x 10 days, P3 vs T0",14.99%
same,Serum DHBV-DNA OD490 value (X ± SD),"[4]; Lot II, 50 mg/kg oral bid x 10 days, T0 (day before administration)",1.375 ± 0.28
same,Serum DHBV-DNA OD490 value (X ± SD),"[4]; Lot II, 50 mg/kg oral bid x 10 days, T5",1.075 ± 0.14
same,Serum DHBV-DNA level Inhibitory Rate (%),"[4]; Lot II, 50 mg/kg oral bid x 10 days, T5 vs T0",20.22** %
same,Serum DHBV-DNA OD490 value (X ± SD),"[4]; Lot II, 50 mg/kg oral bid x 10 days, T10",0.947 ± 0.13
same,Serum DHBV-DNA level Inhibitory Rate (%),"[4]; Lot II, 50 mg/kg oral bid x 10 days, T10 vs T0",27.55* %
same,Serum DHBV-DNA OD490 value (X ± SD),"[4]; Lot II, 100 mg/kg oral bid x 10 days, P3 (third day after cessation)",0.875 ± 0.17
same,Serum DHBV-DNA level Inhibitory Rate (%),"[4]; Lot II, 100 mg/kg oral bid x 10 days, P3 vs T0",18.04* %
same,Serum DHBV-DNA OD490 value (X ± SD),"[4]; Lot II, 100 mg/kg oral bid x 10 days, T0 (day before administration)",1.080 ± 0.21
same,Serum DHBV-DNA OD490 value (X ± SD),"[4]; Lot II, 100 mg/kg oral bid x 10 days, T5",0.872 ± 0.13
same,Serum DHBV-DNA level Inhibitory Rate (%),"[4]; Lot II, 100 mg/kg oral bid x 10 days, T5 vs T0",18.14** %
same,Serum DHBV-DNA OD490 value (X ± SD),"[4]; Lot II, 100 mg/kg oral bid x 10 days, T10",0.670 ± 0.14
same,Serum DHBV-DNA level Inhibitory Rate (%),"[4]; Lot II, 100 mg/kg oral bid x 10 days, T10 vs T0",36.65** %
same,Serum DHBV-DNA OD490 value (X ± SD),"[4]; Lot III, 25 mg/kg oral bid x 10 days, P3 (third day after cessation)",1.035 ± 0.21
same,Serum DHBV-DNA level Inhibitory Rate (%),"[4]; Lot III, 25 mg/kg oral bid x 10 days, P3 vs T0",16.14* %
same,Serum DHBV-DNA OD490 value (X ± SD),"[4]; Lot III, 25 mg/kg oral bid x 10 days, T0 (day before administration)",1.263 ± 0.35
same,Serum DHBV-DNA OD490 value (X ± SD),"[4]; Lot III, 25 mg/kg oral bid x 10 days, T5",1.079 ± 0.23
same,Serum DHBV-DNA level Inhibitory Rate (%),"[4]; Lot III, 25 mg/kg oral bid x 10 days, T5 vs T0",11.66* %
same,Serum DHBV-DNA OD490 value (X ± SD),"[4]; Lot III, 25 mg/kg oral bid x 10 days, T10",1.076 ± 0.16
same,Serum DHBV-DNA level Inhibitory Rate (%),"[4]; Lot III, 25 mg/kg oral bid x 10 days, T10 vs T0",11.96* %
same,Serum DHBV-DNA OD490 value (X ± SD),"[4]; Lot III, 50 mg/kg oral bid x 10 days, P3 (third day after cessation)",1.368 ± 0.11
same,Serum DHBV-DNA level Inhibitory Rate (%),"[4]; Lot III, 50 mg/kg oral bid x 10 days, P3 vs T0",16.59** %
same,Serum DHBV-DNA OD490 value (X ± SD),"[4]; Lot III, 50 mg/kg oral bid x 10 days, T0 (day before administration)",1.649 ± 0.13
same,Serum DHBV-DNA OD490 value (X ± SD),"[4]; Lot III, 50 mg/kg oral bid x 10 days, T5",1.459 ± 0.28
same,Serum DHBV-DNA level Inhibitory Rate (%),"[4]; Lot III, 50 mg/kg oral bid x 10 days, T5 vs T0",11.03* %
same,Serum DHBV-DNA OD490 value (X ± SD),"[4]; Lot III, 50 mg/kg oral bid x 10 days, T10",1.411 ± 0.31
same,Serum DHBV-DNA level Inhibitory Rate (%),"[4]; Lot III, 50 mg/kg oral bid x 10 days, T10 vs T0",13.00%
same,Serum DHBV-DNA OD490 value (X ± SD),"[4]; Lot III, 100 mg/kg oral bid x 10 days, P3 (third day after cessation)",1.146 ± 0.56
same,Serum DHBV-DNA level Inhibitory Rate (%),"[4]; Lot III, 100 mg/kg oral bid x 10 days, P3 vs T0",18.34%
same,Serum DHBV-DNA OD490 value (X ± SD),"[4]; Lot III, 100 mg/kg oral bid x 10 days, T0 (day before administration)",1.474 ± 0.38
same,Serum DHBV-DNA OD490 value (X ± SD),"[4]; Lot III, 100 mg/kg oral bid x 10 days, T5",1.351 ± 0.30
same,Serum DHBV-DNA level Inhibitory Rate (%),"[4]; Lot III, 100 mg/kg oral bid x 10 days, T5 vs T0",2.76%
same,Serum DHBV-DNA OD490 value (X ± SD),"[4]; Lot III, 100 mg/kg oral bid x 10 days, T10",1.046 ± 0.42
same,Serum DHBV-DNA level Inhibitory Rate (%),"[4]; Lot III, 100 mg/kg oral bid x 10 days, T10 vs T0",28.41** %
same,Selection index (CC50/EC50),[5],5.75 ± 0.67
same,"Median effective concentration (EC50), HIV-1 P24 antigen",[5]; 96 hours,0.97 ± 0.13 µg/mL
same,"Median effective concentration (EC50), HIV-1 P24 antigen","HIV-1 IIIB [6]; H9 cell chronically infected with HIV-1 IIIB, 96 hours",>0.25 ± 0 µg/mL
same,inhibition effect on HIV-1 IIIB chronically-infected H9 cells,HIV-1 IIIB [6]; two lots of tests,no inhibition effect
same,Median cytotoxicity concentration (CC50),[7]; PBMC infected with AZT-resistant HIV-1 018c,5.55 ± 0.136 µg/mL
same,Median cytotoxicity concentration (CC50),[7]; PBMC infected with AZT-sensitive HIV-1 018a,5.66 ± 0.28 µg/mL
same,solubility in DMSO,solubility; DMSO,soluble
same,solubility in water,solubility; water,insoluble
